Experiments:
Format in all cases: biochemical
[1] = target: T1, cathepsin B (Homo sapiens, UniProt P07858); test: Cathepsin B enzyme inhibition in vitro (kinetic fluorescence assay); conditions: Ki(cathepsin B)/Ki(calpain) ratio
T1 construct: cathepsin B—isolated from human liver; purchased Calbiochem 219362; host or cells: human liver (tissue isolate)
In short: (§1)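 Kinetic fluorescence (ex 390/em 460 nm), RT. Calpain-I: 20 nM erythrocyte-derived, 100 μM Suc-Leu-Tyr-AMC, imidazole/CaCl2, pH 7.3. Cathepsins, pH 6.0 MES/EDTA/cysteine: B 0.25 nM liver, 100 μM Z-Phe-Arg-AMC; L 1 nM liver, 2 μM Z-Phe-Arg-AMC; S 0.5 nM recombinant, 20 μM Z-Val-Val-Arg-AMC. Cheng-Prusoff Ki, mean of 2–4 curves.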

[2] = target: T2, cathepsin K (Homo sapiens, UniProt P43235); test: Cathepsin K enzyme inhibition in vitro (kinetic fluorescence assay); conditions: Ki(cathepsin K)/Ki(calpain) ratio
T2 construct: purchased Calbiochem 342001; host or cells: E. coli
T2 sequence (P43235 115-329): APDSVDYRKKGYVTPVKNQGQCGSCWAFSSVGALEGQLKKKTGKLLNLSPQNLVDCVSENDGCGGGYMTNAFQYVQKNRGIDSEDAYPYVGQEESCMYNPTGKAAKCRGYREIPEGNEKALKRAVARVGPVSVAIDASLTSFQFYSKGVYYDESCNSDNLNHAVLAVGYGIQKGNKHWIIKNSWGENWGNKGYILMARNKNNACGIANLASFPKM

[3] = target: T3, cathepsin L (Homo sapiens, UniProt P07711); test: Cathepsin L enzyme inhibition in vitro (kinetic fluorescence assay); conditions: Ki(cathepsin L)/Ki(calpain) ratio
T3 construct: cathepsin L—isolated from human liver; purchased Calbiochem 219402; host or cells: human liver (tissue isolate)
T3 sequence (P07711 114-333): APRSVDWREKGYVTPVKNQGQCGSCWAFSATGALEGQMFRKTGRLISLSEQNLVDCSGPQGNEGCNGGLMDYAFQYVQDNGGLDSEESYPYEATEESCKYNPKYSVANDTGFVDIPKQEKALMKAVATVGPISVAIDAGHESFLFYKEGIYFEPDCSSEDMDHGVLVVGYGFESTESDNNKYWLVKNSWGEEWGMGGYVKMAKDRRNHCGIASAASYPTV
In short: as §1

[4] = target: T4, cathepsin S (Homo sapiens, UniProt P25774); test: Cathepsin S enzyme inhibition in vitro (kinetic fluorescence assay); conditions: Ki(cathepsin S)/Ki(calpain) ratio
T4 construct: purchased Calbiochem 219343; host or cells: E. coli
T4 sequence (P25774 115-331): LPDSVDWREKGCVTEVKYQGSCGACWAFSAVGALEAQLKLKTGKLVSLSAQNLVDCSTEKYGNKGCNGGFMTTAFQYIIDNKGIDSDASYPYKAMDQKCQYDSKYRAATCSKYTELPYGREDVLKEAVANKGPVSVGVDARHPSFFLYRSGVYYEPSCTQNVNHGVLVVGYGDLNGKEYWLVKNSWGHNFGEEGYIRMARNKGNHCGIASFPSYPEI
In short: as §1

| Compound | Sel cat. B [1] | Sel cat. K [2] | Sel cat. L [3] | Sel cat. S [4] |
| --- | --- | --- | --- | --- |
| NC(=O)C(=O)C(Cc1ccccc1)NC(=O)c1cccnc1-n1ccc(-c2ccc(N3CCCC3)cc2)n1 (stereo not shown) [Example 69, N-(3-Amino-1-benzyl-2,3-dioxopropyl)-2-[3-(4-pyrrolidin-1-ylphenyl)-1H-pyrazol-1-yl]nicotinamide] | + (+ means 10≦Ki(cathepsin B)/Ki(calpain)<30) | + (+ means 10≦Ki(cathepsin K)/Ki(calpain)<30) | ++ (++ means a Ki(cathepsin L)/Ki(calpain) ratio of ≧50) | ++ (++ means a Ki(cathepsin S)/Ki(calpain) ratio of ≧100) |
| NC(=O)C(=O)C(Cc1ccccc1)NC(=O)c1cccnc1-n1ccc(-c2cccc(C(F)(F)F)c2Cl)n1 (stereo not shown) [Example 155, N-[3-Amino-2,3-dioxo-1-(phenylmethyl)propyl]-2-{3-[2-chloro-3-(trifluoromethyl)phenyl]-1H-pyrazol-1-yl}pyridine-3-carboxamide] | ++ (++ means a Ki(cathepsin B)/Ki(calpain) ratio of ≧30) | ++ (++ means a Ki(cathepsin K)/Ki(calpain) ratio of ≧30) | ++ (++ means a Ki(cathepsin L)/Ki(calpain) ratio of ≧50) | ++ (++ means a Ki(cathepsin S)/Ki(calpain) ratio of ≧100) |
| NC(=O)C(=O)C(Cc1ccccc1)NC(=O)c1cccnc1-n1ccc(-c2ccccc2Cl)n1 (stereo not shown) [Example 54, N-(3-Amino-1-benzyl-2,3-dioxopropyl)-2-[3-(2-chlorophenyl)-1H-pyrazol-1-yl]nicotinamide] | ++ (++ means a Ki(cathepsin B)/Ki(calpain) ratio of ≧30) | ++ (++ means a Ki(cathepsin K)/Ki(calpain) ratio of ≧30) | ++ (++ means a Ki(cathepsin L)/Ki(calpain) ratio of ≧50) | ++ (++ means a Ki(cathepsin S)/Ki(calpain) ratio of ≧100) |
| NC(=O)C(=O)C(Cc1ccc(OC(F)(F)F)cc1)NC(=O)c1cccnc1-n1ccc(-c2ccccc2)n1 (stereo not shown) [Example 133] | ++ (++ means a Ki(cathepsin B)/Ki(calpain) ratio of ≧30) | ++ (++ means a Ki(cathepsin K)/Ki(calpain) ratio of ≧30) | ++ (++ means a Ki(cathepsin L)/Ki(calpain) ratio of ≧50) | ++ (++ means a Ki(cathepsin S)/Ki(calpain) ratio of ≧100) |
| COc1ccc(CC(NC(=O)c2cccnc2-n2ccc(-c3ccc(F)cc3F)n2)C(=O)C(N)=O)cc1 (stereo not shown) [Example 97, N-(3-Amino-1-{[4-(methyloxy)phenyl]methyl}-2,3-dioxopropyl)-2-[3-(2,4-difluorophenyl)-1H-pyrazol-1-yl]pyridine-3-carboxamide] | ++ (++ means a Ki(cathepsin B)/Ki(calpain) ratio of ≧30) | + (+ means 10≦Ki(cathepsin K)/Ki(calpain)<30) | ++ (++ means a Ki(cathepsin L)/Ki(calpain) ratio of ≧50) | ++ (++ means a Ki(cathepsin S)/Ki(calpain) ratio of ≧100) |
| NC(=O)C(=O)C(Cc1ccccc1)NC(=O)c1cccnc1-n1ccc(-c2cc(Cl)ccc2Cl)n1 (stereo not shown) [Example 112, N-[3-Amino-2,3-dioxo-1-(phenylmethyl)propyl]-2-[3-(2,5-dichlorophenyl)-1H-pyrazol-1-yl]pyridine-3-carboxamide] | ++ (++ means a Ki(cathepsin B)/Ki(calpain) ratio of ≧30) | ++ (++ means a Ki(cathepsin K)/Ki(calpain) ratio of ≧30) | ++ (++ means a Ki(cathepsin L)/Ki(calpain) ratio of ≧50) | ++ (++ means a Ki(cathepsin S)/Ki(calpain) ratio of ≧100) |
| COc1c(C)cc(C)cc1-c1ccn(-c2ncccc2C(=O)NC(Cc2ccccc2)C(=O)C(N)=O)n1 (stereo not shown) [Example 121, N-[3-Amino-2,3-dioxo-1-(phenylmethyl)propyl]-2-{3-[3,5-dimethyl-2-(methyloxy)phenyl]-1H-pyrazol-1-yl}pyridine-3-carboxamide] | ++ (++ means a Ki(cathepsin B)/Ki(calpain) ratio of ≧30) | ++ (++ means a Ki(cathepsin K)/Ki(calpain) ratio of ≧30) | ++ (++ means a Ki(cathepsin L)/Ki(calpain) ratio of ≧50) | ++ (++ means a Ki(cathepsin S)/Ki(calpain) ratio of ≧100) |
| NC(=O)C(=O)C(Cc1ccccc1)NC(=O)c1cccnc1-n1ccc(-c2c(F)cc(F)cc2F)n1 (stereo not shown) [Example 116, N-[3-Amino-2,3-dioxo-1-(phenylmethyl)propyl]-2-[3-(2,4,6-trifluorophenyl)-1H-pyrazol-1-yl]pyridine-3-carboxamide] | ++ (++ means a Ki(cathepsin B)/Ki(calpain) ratio of ≧30) | + (+ means 10≦Ki(cathepsin K)/Ki(calpain)<30) | ++ (++ means a Ki(cathepsin L)/Ki(calpain) ratio of ≧50) | ++ (++ means a Ki(cathepsin S)/Ki(calpain) ratio of ≧100) |
| NC(=O)C(=O)C(Cc1ccccc1)NC(=O)c1cccnc1-n1cc2c(n1)-c1ccccc1SC2 (stereo not shown) [Example 173, N-[3-Amino-2,3-dioxo-1-(phenylmethyl)propyl]-2-thiochromeno[4,3-c]pyrazol-2(4H)-ylpyridine-3-carboxamide] | + (+ means 10≦Ki(cathepsin B)/Ki(calpain)<30) | + (+ means 10≦Ki(cathepsin K)/Ki(calpain)<30) | ++ (++ means a Ki(cathepsin L)/Ki(calpain) ratio of ≧50) | ++ (++ means a Ki(cathepsin S)/Ki(calpain) ratio of ≧100) |
| NC(=O)C(=O)C(Cc1ccccc1)NC(=O)c1cccnc1-n1cc2c(n1)-c1ccccc1S(=O)(=O)C2 (stereo not shown) [Example 174, N-[3-Amino-2,3-dioxo-1-(phenylmethyl)propyl]-2-(5,5-dioxidothiochromeno[4,3-c]pyrazol-2(4H)-yl)pyridine-3-carboxamide] | + (+ means 10≦Ki(cathepsin B)/Ki(calpain)<30) | + (+ means 10≦Ki(cathepsin K)/Ki(calpain)<30) | ++ (++ means a Ki(cathepsin L)/Ki(calpain) ratio of ≧50) | ++ (++ means a Ki(cathepsin S)/Ki(calpain) ratio of ≧100) |
| NC(=O)C(=O)C(Cc1ccccc1)NC(=O)c1cccnc1-n1ccc(-c2cccc3c2OC(F)(F)O3)n1 (stereo not shown) [Example 119, N-[3-Amino-2,3-dioxo-1-(phenylmethyl)propyl]-2-[3-(2,2-difluoro-1,3-benzodioxol-4-yl)-1H-pyrazol-1-yl]pyridine-3-carboxamide] | ++ (++ means a Ki(cathepsin B)/Ki(calpain) ratio of ≧30) | ++ (++ means a Ki(cathepsin K)/Ki(calpain) ratio of ≧30) | ++ (++ means a Ki(cathepsin L)/Ki(calpain) ratio of ≧50) | ++ (++ means a Ki(cathepsin S)/Ki(calpain) ratio of ≧100) |
| COc1ccc(CC(NC(=O)c2cccnc2-n2ccc(-c3ccc(F)cc3OC)n2)C(=O)C(N)=O)cc1 (stereo not shown) [Example 136, N-(3-Amino-1-{[4-(methyloxy)phenyl]methyl}-2,3-dioxopropyl)-2-{3-[4-fluoro-2-(methyloxy)phenyl]-1H-pyrazol-1-yl}pyridine-3-carboxamide] | ++ (++ means a Ki(cathepsin B)/Ki(calpain) ratio of ≧30) | ++ (++ means a Ki(cathepsin K)/Ki(calpain) ratio of ≧30) | ++ (++ means a Ki(cathepsin L)/Ki(calpain) ratio of ≧50) | ++ (++ means a Ki(cathepsin S)/Ki(calpain) ratio of ≧100) |
| NC(=O)C(=O)C(Cc1ccccc1)NC(=O)c1cccnc1-n1ccc(-c2ccccc2OC(F)F)n1 (stereo not shown) [Example 166, N-[3-Amino-2,3-dioxo-1-(phenylmethyl)propyl]-2-(3-{2-[(difluoromethyl)oxy]phenyl}-1H-pyrazol-1-yl)pyridine-3-carboxamide] | + (+ means 10≦Ki(cathepsin B)/Ki(calpain)<30) | ++ (++ means a Ki(cathepsin K)/Ki(calpain) ratio of ≧30) | ++ (++ means a Ki(cathepsin L)/Ki(calpain) ratio of ≧50) | ++ (++ means a Ki(cathepsin S)/Ki(calpain) ratio of ≧100) |

From patent publication US9139557B2, “Carboxamide compounds and their use as calpain inhibitors” (Abbott GmbH & Co. KG, priority 2006, dated 2015)
